Species on record: Rattus norvegicus
Experiment: DrugMatrix - Regimen: Daily Repeat
Type: toxicity, organism-based, Sprague-Dawley
Parameters: regimen Daily Repeat, gender Male, age 6-8 weeks
Settings: in vivo, po, route oral GAVAGE, vehicle 100 % WATER; for ABSOLUTE BASOPHIL / ABSOLUTE EOSINOPHIL / ABSOLUTE LYMPHOCYTE / ABSOLUTE MONOCYTE / ABSOLUTE SEGMENTED NEUTROPHIL / BASOPHIL / EOSINOPHIL / ERYTHROCYTE COUNT / HEMATOCRIT / HEMOGLOBIN / LEUKOCYTE COUNT / LYMPHOCYTE / MEAN CORPUSCULAR HEMOGLOBIN / MEAN CORPUSCULAR HEMOGLOBIN CONCENTRATION / MONOCYTE / NEUTROPHIL / NUCLEATED RED BLOOD CELLS / PLATELET COUNT: tissue Blood; for ALANINE AMINOTRANSFERASE / ALBUMIN / ALKALINE PHOSPHATASE / BLOOD UREA NITROGEN / CARBON DIOXIDE / CHLORIDE / CHOLESTEROL / CREATINE PHOSPHOKINASE / CREATININE / GLUCOSE / LACTATE DEHYDROGENASE / LIPASE / PHOSPHORUS / POTASSIUM / SODIUM / TOTAL BILIRUBIN / TOTAL PROTEIN / URIC ACID: tissue Plasma
[1] = 15 mg/kg, 120 h, dose level Low, time 5 day
[2] = 150 mg/kg, 72 h, dose level High, time 3 day
[3] = 150 mg/kg, 120 h, dose level High, time 5 day

Cc1ccc(NC(=O)c2ccc(CN3CCN(C)CC3)cc2)cc1Nc1nccc(-c2cccnc2)n1 [IMATINIB]
ABSOLUTE BASOPHIL [1]: 0 CELLS/uL | ABSOLUTE EOSINOPHIL [1]: 72.33 CELLS/uL | ABSOLUTE LYMPHOCYTE [1]: 6282 CELLS/uL | ABSOLUTE MONOCYTE [1]: 25.33 CELLS/uL | ABSOLUTE SEGMENTED NEUTROPHIL [1]: 653.67 CELLS/uL | BASOPHIL [1]: 0% | EOSINOPHIL [1]: 1% | ERYTHROCYTE COUNT [1]: 5.21 x10E6/uL | HEMATOCRIT [1]: 33.07% | HEMOGLOBIN [1]: 12.73 G/DL | LEUKOCYTE COUNT [1]: 7.03 x10E3/uL | LYMPHOCYTE [1]: 89.67% | MEAN CORPUSCULAR HEMOGLOBIN [1]: 24.43 pg | MEAN CORPUSCULAR HEMOGLOBIN CONCENTRATION [1]: 38.53 G/DL | MONOCYTE [1]: 0.33% | NEUTROPHIL [1]: 9% | NUCLEATED RED BLOOD CELLS [1]: 0 /100WBC | PLATELET COUNT [1]: 1004.67 x10E3/uL | ALANINE AMINOTRANSFERASE [1]: 55.67 u/L | ALBUMIN [1]: 4.2 G/DL | ALKALINE PHOSPHATASE [1]: 357.67 u/L | BLOOD UREA NITROGEN [1]: 14.67 mg/dL | CARBON DIOXIDE [1]: 28 mmol/L | CHLORIDE [1]: 100.33 MEQ/L | CHOLESTEROL [1]: 60 mg/dL | CREATINE PHOSPHOKINASE [1]: 404.33 u/L | CREATININE [1]: 0.17 mg/dL | GLUCOSE [1]: 140.33 mg/dL | LACTATE DEHYDROGENASE [1]: 183.67 u/L | LIPASE [1]: 8 u/L | PHOSPHORUS [1]: 11.1 mg/dL | POTASSIUM [1]: 5.69 MEQ/L | SODIUM [1]: 145.7 MEQ/L | TOTAL BILIRUBIN [1]: 0.3 mg/dL | TOTAL PROTEIN [1]: 6 G/DL | URIC ACID [1]: 0.73 mg/dL | ABSOLUTE BASOPHIL [2]: 0 CELLS/uL | ABSOLUTE EOSINOPHIL [2]: 64 CELLS/uL | ABSOLUTE LYMPHOCYTE [2]: 9025.33 CELLS/uL | ABSOLUTE MONOCYTE [2]: 0 CELLS/uL | ABSOLUTE SEGMENTED NEUTROPHIL [2]: 844 CELLS/uL | BASOPHIL [2]: 0% | EOSINOPHIL [2]: 0.67% | ERYTHROCYTE COUNT [2]: 5.45 x10E6/uL | HEMATOCRIT [2]: 34.93% | HEMOGLOBIN [2]: 13 G/DL | LEUKOCYTE COUNT [2]: 9.93 x10E3/uL | LYMPHOCYTE [2]: 90.33% | MEAN CORPUSCULAR HEMOGLOBIN [2]: 23.83 pg | MEAN CORPUSCULAR HEMOGLOBIN CONCENTRATION [2]: 37.2 G/DL | MONOCYTE [2]: 0% | NEUTROPHIL [2]: 9% | NUCLEATED RED BLOOD CELLS [2]: 0 /100WBC | PLATELET COUNT [2]: 1243.33 x10E3/uL | ALANINE AMINOTRANSFERASE [2]: 86 u/L | ALBUMIN [2]: 4.3 G/DL | ALKALINE PHOSPHATASE [2]: 449.67 u/L | BLOOD UREA NITROGEN [2]: 14.67 mg/dL | CARBON DIOXIDE [2]: 26.33 mmol/L | CHLORIDE [2]: 105.33 MEQ/L | CHOLESTEROL [2]: 61.33 mg/dL | CREATINE PHOSPHOKINASE [2]: 205.67 u/L | CREATININE [2]: 0.17 mg/dL | GLUCOSE [2]: 154 mg/dL | LACTATE DEHYDROGENASE [2]: 135.33 u/L | LIPASE [2]: 9 u/L | PHOSPHORUS [2]: 11 mg/dL | POTASSIUM [2]: 5.83 MEQ/L | SODIUM [2]: 145.03 MEQ/L | TOTAL BILIRUBIN [2]: 0.23 mg/dL | TOTAL PROTEIN [2]: 5.97 G/DL | URIC ACID [2]: 1.3 mg/dL | ABSOLUTE BASOPHIL [3]: 0 CELLS/uL | ABSOLUTE EOSINOPHIL [3]: 37 CELLS/uL | ABSOLUTE LYMPHOCYTE [3]: 11284 CELLS/uL | ABSOLUTE MONOCYTE [3]: 0 CELLS/uL | ABSOLUTE SEGMENTED NEUTROPHIL [3]: 1012.33 CELLS/uL | BASOPHIL [3]: 0% | EOSINOPHIL [3]: 0.33% | ERYTHROCYTE COUNT [3]: 5.01 x10E6/uL | HEMATOCRIT [3]: 32.5% | HEMOGLOBIN [3]: 12.27 G/DL | LEUKOCYTE COUNT [3]: 12.33 x10E3/uL | LYMPHOCYTE [3]: 91.33% | MEAN CORPUSCULAR HEMOGLOBIN [3]: 24.53 pg | MEAN CORPUSCULAR HEMOGLOBIN CONCENTRATION [3]: 37.73 G/DL | MONOCYTE [3]: 0% | NEUTROPHIL [3]: 8.33% | NUCLEATED RED BLOOD CELLS [3]: 0 /100WBC | PLATELET COUNT [3]: 1206.67 x10E3/uL | ALANINE AMINOTRANSFERASE [3]: 77.33 u/L | ALBUMIN [3]: 4.37 G/DL | ALKALINE PHOSPHATASE [3]: 359.33 u/L | BLOOD UREA NITROGEN [3]: 17.33 mg/dL | CARBON DIOXIDE [3]: 27.33 mmol/L | CHLORIDE [3]: 100 MEQ/L | CHOLESTEROL [3]: 49.67 mg/dL | CREATINE PHOSPHOKINASE [3]: 251 u/L | CREATININE [3]: 0.21 mg/dL | GLUCOSE [3]: 162 mg/dL | LACTATE DEHYDROGENASE [3]: 163.67 u/L | LIPASE [3]: 9 u/L | PHOSPHORUS [3]: 10.77 mg/dL | POTASSIUM [3]: 5.96 MEQ/L | SODIUM [3]: 141.83 MEQ/L | TOTAL BILIRUBIN [3]: 0.2 mg/dL | TOTAL PROTEIN [3]: 5.9 G/DL | URIC ACID [3]: 1.47 mg/dL

— ChEMBL document CHEMBL3885881, “DrugMatrix”
